Results from US5484940A, “Substituted 3-indolyl-5-pyrazolone compounds” (priority 1994, dated 1996).

Key:
Ultraviolet absorption = assay type: physicochemical; details: 0.1 mg/mL in methanol, 1 cm quartz cuvette
Procedure: The ultraviolet (UV) absorption properties of two representative substituted 3-indolyl-5-pyrazolones were evaluated and compared to indomethacin [1-(4-chlorobenzoyl)-5-methoxy-2-methyl-^1 H-indole-3-acetic acid], a compound known to absorb UV light (See page 4855 of the Merck Index, 10th Edition, Windholz, et al. Editor (1983)). Specifically, 0.1 mg/mL of 3-indolyl-5-pyrazolone (Ex. 9 or 33) or indomethacin in methanol was added to a quartz cuvette (1 cm) and the UV absorption of this solution was then measured at a wavelength of from 200 nm to 800 nm (Examples 9 and 33) and from 190 nm to 800 nm.

5-lipoxygenase = biological target: T1, 5-lipoxygenase (Rattus norvegicus, UniProt P12527); experiment: 5-Lipoxygenase inhibition (5-HETE radioimmunoassay); assay type: biochemical; details: crude enzyme from RBL-1 cells, read-out: Percent Inhibition (5-lipoxygenase)
T1 construct: crude 5-lipoxygenase enzyme from rat basophilic leukemia cells (RBL-1); endogenous in cells; host or cells: RBL-1 (rat basophilic leukemia cells), crude enzyme
T1 sequence (P12527 1-673): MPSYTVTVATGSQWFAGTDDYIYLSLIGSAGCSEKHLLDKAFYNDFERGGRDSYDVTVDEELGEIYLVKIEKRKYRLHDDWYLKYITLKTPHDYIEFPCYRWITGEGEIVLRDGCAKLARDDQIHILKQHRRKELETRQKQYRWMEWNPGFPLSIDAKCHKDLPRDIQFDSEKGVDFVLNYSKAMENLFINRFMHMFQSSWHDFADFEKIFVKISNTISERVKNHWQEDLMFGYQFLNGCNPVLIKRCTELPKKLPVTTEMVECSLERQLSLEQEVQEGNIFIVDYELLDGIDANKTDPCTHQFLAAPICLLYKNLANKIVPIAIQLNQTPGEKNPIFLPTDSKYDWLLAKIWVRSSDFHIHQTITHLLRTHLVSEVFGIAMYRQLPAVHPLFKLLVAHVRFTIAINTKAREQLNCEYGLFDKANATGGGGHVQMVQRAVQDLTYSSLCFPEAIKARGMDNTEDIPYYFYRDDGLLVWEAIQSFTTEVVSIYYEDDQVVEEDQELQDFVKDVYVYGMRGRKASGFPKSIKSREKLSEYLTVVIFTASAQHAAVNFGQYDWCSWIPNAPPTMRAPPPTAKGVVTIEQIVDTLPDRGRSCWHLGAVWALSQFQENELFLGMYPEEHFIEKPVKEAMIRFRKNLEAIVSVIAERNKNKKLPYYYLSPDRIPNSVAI
Procedure: 5-Lipoxygenase catalyzes the oxidative metabolism of arachidonic acid to 5-hydroperoxyeicosatetraenoid acid ([…]), the initial reaction leading to the formation of the leukotrienes^18. Accordingly, compounds inhibiting 5-lipoxygenase activity are art recognized to have anti-inflammatory properties.
The ability of test compounds to inhibit 5-lipoxygenase activity was determined in assays^19 using crude 5-lipoxygenase enzyme from rat basophilic leukemia cells (RBL-1). Test compounds are pre-incubated with the enzyme for 5 minutes at room temperature and the reaction is initiated by addition of substrate (arachidonic acid). Following an 8 minute incubation at room temperature, the reaction is terminated by addition of citric acid, and levels of 5-HETE determined by 5-HETE radioimmunoassay.

[1] = system: β-amyloid peptide production; experiment: Cellular screen for inhibitors of β-amyloid production (ELISA, 293 751 SWE cells); assay type: cell-based, human; details: 2 h pretreatment + 2 h, normalized for cytotoxicity (MTT), concentration not given
Outline: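 293 751 SWE cells (K293 stably expressing APP751 Swedish mutant) pretreated 2 h with compound, then fresh compound-containing medium for 2 h more at 37 °C. Secreted β-amyloid in conditioned medium quantified by sandwich ELISA (capture 266 anti-Aβ13-28, labelled 6C6 anti-Aβ1-16) against a standard curve as ng/mL; mean ± SD of ≥6 replicates.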

293 751 SWE cells = experiment: Cytotoxicity (MTT) in 293 751 SWE cells; assay type: cell-based, human; details: concentration not given
Outline: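 Used HEK293 cells stably expressing APP751 carrying the Swedish double mutation (K651N/M652L), plated at 1.5-2.5×10^4 cells/well in DMEM + 10% FBS. MTT was added to a final 1 mg/mL for 1 h at 37 °C, then lysed in SDS/DMF (pH 4.7) overnight. Viability was read as OD562 − OD650.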

human cortical neurons = experiment: Inhibition of toxicity of β-amyloid peptide to human neuronal cells (alamarBlue); assay type: cell-based; details: 50 μM β-amyloid peptide, 2-3 days; on average where more than one duplicate experiment; compound concentration not stated
Procedure: (§1) The purpose of this test is to determine the effect of 3-indolyl-5-pyrazolone compounds on the toxicity of β-amyloid peptide to neuronal cells.
Primary Human Cortical Cell Culture
Primary human cortical cultures were prepared using a modification of the procedure described by Seubert, et al.^21 Following filtration through Nitex nylon screens, cortical tissue was resuspended in a trypsin/EDTA solution (0.05% trypsin+0.53 mM EDTA in HBSS; GIBCO Laboratories, Grand Island, N.Y., USA) and kept at 37° C. for 20 minutes. The trypsin was then inactivated by resuspending the cells in serum-containing medium (MEM/FBS: Modified Eagles' Medium (MEM) containing 1% glucose, 1 mM sodium pyruvate, 1 mM glutamine, and supplemented with 10% fetal bovine serum (GIBCO). Cells were then pelleted by centrifugation and resuspended in a chemically-defined medium (MEM/B27: MEM containing B27 supplement in place of FBS; GIBCO). Polyethyleneimine (PEI; Sigma Chemical Company, St. Louis, Mo., USA)-coated 6.4 mm (96-well) dishes were rinsed once with MEM/FBS, and then seeded at 0.75 to 1.25×10^5 cells per well in 0.1 mL MEM/B27. Cultures were maintained in a H2 O-saturated incubator with an atmosphere of 95% air/5% CO 2 at 37° C. The culture medium was exchanged twice weekly. Cell viability was visually assessed by phase contrast microscopy and quantified by measuring the reduction of alamarBlue™ (Alamar Biosciences, Inc., Sacramento, Calif., USA).
(§2) β-amyloid peptide stock solutions were prepared as 1 mM stocks in sterile, doubly distilled water immediately prior to addition to cultures. Rat cortical neurons were exposed to β-amyloid peptide by removing the culture medium and replacing it with DMEM/N2 (GIBCO Laboratories,Grand Island, N.Y., USA) containing 10 to 20 μM β-amyloid peptide. Human cortical neurons were exposed to test compound plus β-amyloid peptide by removing the culture medium and replacing it with MEM containing 50 μM β-amyloid peptide. Cultures were maintained for 2-3 days before neuronal survival was quantified using alamarBlue™.
(§3) The alamarBlue™ assay incorporates a fluorometric/colorimetric metabolic indicator (Alamar Biosciences, Inc. Sacramento, Calif., USA). Viable cells convert alamarBlue™ from an oxidized (non-fluorescent, blue) form to a reduced (fluorescent, red) form. Assays were preformed by replacing the culture media with a 10% alamarBlue™ solution in DMEM (rat cortical cultures) or MEM (human cortical cultures).

rat cortical neurons = experiment: Inhibition of toxicity of β-amyloid peptide to rat neuronal cells (alamarBlue); assay type: cell-based; details: 10 to 20 μM β-amyloid peptide, 2-3 days; on average where more than one duplicate experiment; compound concentration not stated
Procedure: as §1
Primary rat cortical cultures were established from 18 day rat fetuses. Cortical tissue was dissociated by incubation in a trypsin/EDTA solution (0.05% trypsin+0.53 mM EDTA in HBSS; GIBCO Laboratories, Grand Island, N.Y., USA) for 20 minutes at 37° C. The trypsin was then inactivated by resuspending the cells in serum-containing medium (DMEM/FBS): Dulbecco's Modified Eagles' Medium (DMEM) containing 4.5 g/L glucose, 1 mM sodium pyruvate, 1 mM glutamine, 100 Units/mL penicillin, 100 μg/mL streptomycin, and supplemented with 10% heat-inactivated fetal bovine serum (GIBCO Laboratories, Grand Island, N.Y., USA). Cells were then pelleted by centrifugation and resuspended in a chemically-defined medium (DMEM/B27: DMEM containing B27 supplement; GIBCO Laboratories, Grand Island, N.Y., USA) in place of FBS. Polyethyleneimine (PEI; Sigma Chemical Company, St. Louis, Mo., USA)-coated 6.4 mm (96-well) dishes were timed once with DMEM/FBS, and then seeded at 0.75 to 1.25×10^5 cells per well in 0.1 mL DMEM/B27. Cultures were maintained in a H2 O-saturated incubator with an atmosphere of 90% air/10% CO2 at 37° C. Cell viability was visually assessed by phase contrast microscopy and quantified by measuring the reduction of alamarBlue™ (Alamar biosciences, Inc., Sacramento, Calif., USA) as described below. Serum replacement with B27 supplement yields nearly pure neuronal cultures as judged by immunocytochemistry for glial fibrillary acidic protein and neuron-specific enolase (Brewer, et al.^20)
as §2, §3

For `COc1ccc2c(c1)c(CC1=NN(C3CCCCC3)C(=O)C1)c(C)n2C(=O)c1ccc(Cl)cc1` [Example 9, 3-[1-(4-chlorobenzoyl)-5-methoxy-2-methyl-3-indolylmethyl]-1-cyclohexyl-5-pyrazolone], the “Abs (at λmax)” value (Ultraviolet absorption) was 2.3299, the “E = Extinction coefficient” value (Ultraviolet absorption) was 23.29 AU/mg/mL/cm and the λmax (Ultraviolet absorption) was 251 nm. The “λother (shoulder)” value (Ultraviolet absorption) was 318 nm, the inhibition at 6 µM (5-lipoxygenase; 6 μM compound) was 75% and the “reduction of β-amyloid peptide production as compared to control” value (from here on “reduction”) [1] was “at least 20%”. The “cytotoxic effect on the 293 751 SWE cells” value (“cytotoxic effect” below) (293 751 SWE cells) was “did not have a significant cytotoxic effect”.
With `COc1ccc2c(c1)c(CC1=NN(C(C)(C)C)C(=O)C1)c(C)n2C(=O)c1ccc(Cl)cc1` [Example 14, 3-[1-(4-chlorobenzoyl)-5-methoxy-2-methyl-3-indolylmethyl]-1-t-butyl-5-pyrazolone] the inhibition at 7.5 µM (5-lipoxygenase; 7.5 μM compound) was 48%, the “reduction” value [1] was “at least 20%” and the “cytotoxic effect” value (293 751 SWE cells) was “did not have a significant cytotoxic effect”.
For `COc1ccc2c(c1)c(CC1=NN(c3ccc(Cl)c(Cl)c3)C(=O)C1)c(C)n2C(=O)c1ccc(Cl)cc1` [Example 33, 3-[1-(4-chlorobenzoyl)-5-methoxy-2-methyl-3-indolylmethyl]-1-(3,4-dichlorophenyl)-5-pyrazolone], the “Abs (at λmax)” value (Ultraviolet absorption) was 2.3458, the “E = Extinction coefficient” value (Ultraviolet absorption) was 23.46 AU/mg/mL/cm and the λmax (Ultraviolet absorption) was 254 nm. The “λother (shoulder)” value (Ultraviolet absorption) was 318 nm, the “inhibition of the toxicity of β-amyloid peptide to human neuronal cells” value (human cortical neurons) was “at least 25%” and the “reduction” value [1] was “at least 20%”. The “inhibition of the toxicity of β-amyloid peptide to rat neuronal cells” value (rat cortical neurons) was “at least 10%” and the “cytotoxic effect” value (293 751 SWE cells) was “did not have a significant cytotoxic effect”.
For `COc1ccc2c(c1)c(CC(=O)O)c(C)n2C(=O)c1ccc(Cl)cc1` [indomethacin, 1-(4-chlorobenzoyl)-5-methoxy-2-methyl-^1 H-indole-3-acetic acid, reference compound], the “Abs (at λmax)” value (Ultraviolet absorption) was 2.3996, the “E = Extinction coefficient” value (Ultraviolet absorption) was 23.99 AU/mg/mL/cm and the λmax (Ultraviolet absorption) was 246 nm. The “λother (shoulder)” value (Ultraviolet absorption) was 318 nm.
